# Paper PMC4796655, “Structural insights into the methyl donor recognition model of a novel membrane-binding protein UbiG” (Scientific Reports, 2016)
# Experiments:
# Format in all cases: binding
# Conditions in all cases: read-out: [drawing 1] /
# [1] = target: T1, UbiG (Escherichia coli, UniProt P17993, DEL165-187); experiment: isothermal titration calorimetry; X-ray structure of the complex […] Å
# T1 construct: full-length, 240 residues, pET28a-UbiG (1-240), expressed in E. coli BL21 (DE3); purified as described previously
# [2] = target: T2, UbiG (Escherichia coli, UniProt P17993); experiment: isothermal titration calorimetry
# T2 construct: full-length, 240 residues, pET28a-UbiG (1-240), expressed in E. coli BL21 (DE3); purified as described previously
# T2 sequence (P17993 1-240): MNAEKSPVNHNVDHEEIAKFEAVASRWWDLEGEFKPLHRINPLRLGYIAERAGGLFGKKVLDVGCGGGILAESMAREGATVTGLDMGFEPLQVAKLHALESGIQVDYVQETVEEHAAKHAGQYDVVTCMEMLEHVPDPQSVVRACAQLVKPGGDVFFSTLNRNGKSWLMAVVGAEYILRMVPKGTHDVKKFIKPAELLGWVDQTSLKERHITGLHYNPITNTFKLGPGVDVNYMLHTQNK
# From the text: (§1) isothermal titration calorimetry on UbiG
# [3] = target: T3, UbiG (Escherichia coli, UniProt P17993, I177A/P182A/V181A); experiment: isothermal titration calorimetry
# T3 construct: full-length, 240 residues, pET28a-UbiG (1-240), expressed in E. coli BL21 (DE3); purified as described previously
# From the text: as §1
# [4] = target: T4, UbiG (Escherichia coli, UniProt P17993, V172A/Y176A); experiment: isothermal titration calorimetry
# T4 construct: full-length, 240 residues, pET28a-UbiG (1-240), expressed in E. coli BL21 (DE3); purified as described previously
# From the text: as §1
# T1 sequence (P17993 other isoform, or with tags, fused parts or gaps DEL165-187): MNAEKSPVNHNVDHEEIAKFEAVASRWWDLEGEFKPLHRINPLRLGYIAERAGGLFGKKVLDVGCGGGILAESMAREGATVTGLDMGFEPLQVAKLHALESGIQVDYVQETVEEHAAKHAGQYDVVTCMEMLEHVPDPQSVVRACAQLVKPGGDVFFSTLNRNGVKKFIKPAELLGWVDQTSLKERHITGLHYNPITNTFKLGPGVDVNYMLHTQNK
# T3 sequence (P17993 whole entry I177A/V181A/P182A): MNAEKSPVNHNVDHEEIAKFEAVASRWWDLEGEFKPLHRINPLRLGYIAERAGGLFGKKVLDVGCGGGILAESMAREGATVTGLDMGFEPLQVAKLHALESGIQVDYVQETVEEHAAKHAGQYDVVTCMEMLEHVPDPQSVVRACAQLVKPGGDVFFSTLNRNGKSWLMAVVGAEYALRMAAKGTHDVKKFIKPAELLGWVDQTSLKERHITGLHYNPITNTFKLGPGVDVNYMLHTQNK
# T4 sequence (P17993 whole entry V172A/Y176A): as the sequence (P17993 whole entry I177A/V181A/P182A) above, with V172A, Y176A, A177I, A181V, A182P counted along it
compound,measurement,setting,value
Nc1ncnc2c1ncn2[C@@H]1O[C@H](CSCC[C@H](N)C(=O)O)[C@@H](O)[C@H]1O [SAH],Kd,[1],1.84 ± 0.16 µM
same,Kd,[2],104 ± 17.2 µM
same,Kd,[3],2.77 ± 0.36 µM
same,Kd,[4],3.37 ± 0.84 µM
